Key:
S. aureus (ATCC 12600) [1] = experiment: Minimal microbicidal concentration (MMC99) assay; format: cell-based, Staphylococcus aureus
Procedure: (§1) All the synthesised peptides were tested for their in vitro microbicidal activity against S. aureus (American Type Culture Collection (ATCC) 12600) and P. aeruginosa (ATCC 15442) using a minimal microbicidal concentration (MMC) assay as previously described (Haversen et al. [2010]). Bacteria were cultured in 3.7% brain heart infusion (BHI) broth (Difco, BD Diagnostics, Franklin Lakes, NJ) on a shaker at 250 rpm overnight at 37°C. The culture was diluted 1:10 in fresh 3.7% BHI and incubated for two additional hours to reach log-phase growth. The bacteria were pelleted by centrifugation at 900 × g and suspended in 0.037% BHI to a concentration of 10^7 CFU/mL, estimated by measuring optical density at 600 nm (OD600). To investigate the influence of physiological conditions on microbicidal effect of the peptides, four different assay media were used: 0.037% BHI, 0.037% BHI supplemented with 85 or 150 mM sodium chloride (NaCl), and 50% heat inactivated simulated wound fluid (h.i. SWF) composed of a 50:50 mixture of 0.1% peptone (Oxoid, Basingstoke, UK) in 150 mM NaCl and fetal bovine serum (FBS; PAA Laboratories GmbH, Pasching, Austria), diluted two times in ultra pure water. The peptides were serially diluted by twofold steps from 200 to 1.56 mg/L in the assay media used, and 100 μL of the peptide solutions were mixed with 5 μL bacterial suspensions in a 96 well plate (Nunc, Roskilde, Denmark) and incubated at 37°C for two hours. An aliquot of 5 μL from each well was aspirated and added as drops onto blood agar plates (Columbia agar; Oxoid, Basingstoke, UK) supplemented with 5% defibrinated horse blood (Swedish National Veterinary Institute (SVA), Uppsala, Sweden), and the plates were incubated overnight at 37°C. All samples were processed as duplicates. The minimal test compound concentration causing ≥99% reduction of bacteria was defined as the MMC99. The concentration of the bacterial suspension used in the assay was confirmed by viable count estimation on blood agar plates (Oxoid).
(§2) CEN1 HC was further screened for microbicidal activity against a panel of microbial strains using the MMC99 assay, as described above, except using only two different assay media; 0.037% BHI and 50% h.i. SWF. The following microbial strains were tested for sensitivity: S. aureus (ATCC 12600), MRSA (ATCC 33591), Staphylococcus epidermidis (ATCC 12228), Streptococcus pyogenes (ATCC 12344), Propionibacterium acnes (ATCC 6919) Escherichia coli (ATCC 11775), P. aeruginosa (ATCC 15442), Klebsiella pneumoniae (Culture collection, University of Gothenburg (CCUG) 59413, clinical isolate resistant to penicillins, cephalosporins, aztreonam and carbapenems, with the reference strain ATCC 13883), Acinetobacter baumannii (CCUG 58437, clinical isolate resistant to tobramycin, trimsulfa, ciprofloxacin, cefotaxim, ceftazidim, meropenem, pipera/tazobactam, with the reference strain ATCC 19606) and the yeast strain Candida albicans (ATCC 64549). Mupirocin (GlaxoSmithKline) and fusidic acid (LEO Pharma) were used as comparative control antibiotics.

MRSA (ATCC 33591) [2] = experiment: Minimal microbicidal concentration (MMC99) assay; format: cell-based, methicillin-resistant S. aureus; settings: Table 3 panel, up to 200 mg/L, duplicates, maximum of at least two independent experiments
Procedure: as §1
CEN1 HC was further screened for microbicidal activity against a panel of microbial strains using the MMC99 assay, as described above, except using only two different assay media; 0.037% BHI and 50% h.i. SWF. […]

[3] = test system: P. aeruginosa (ATCC 15442); experiment: Minimal microbicidal concentration (MMC99) assay; format: cell-based, Pseudomonas aeruginosa; settings: for MMC99, P. aeruginosa ATCC 15442, 0.037% BHI / MMC99, P. aeruginosa ATCC 15442, 50% h.i. SWF: Table 3 panel
Procedure: as §1, §2

[4] = test system: Streptococcus pyogenes (ATCC 12344); experiment: Minimal microbicidal concentration (MMC99) assay; format: cell-based; settings: Table 3 panel, up to 200 mg/L, duplicates, maximum of at least two independent experiments
Procedure: as §1, §2

[5] = test system: Candida albicans (ATCC 64549); experiment: Minimal microbicidal concentration (MMC99) assay; format: cell-based; settings: Table 3 panel, yeast, up to 200 mg/L, duplicates, maximum of at least two independent experiments
Procedure: as §1, §2

[6] = test system: Staphylococcus epidermidis (ATCC 12228); experiment: Minimal microbicidal concentration (MMC99) assay; format: cell-based; settings: Table 3 panel, up to 200 mg/L, duplicates, maximum of at least two independent experiments
Procedure: as §1, §2

[7] = test system: Klebsiella pneumoniae (CCUG 59413); experiment: Minimal microbicidal concentration (MMC99) assay; format: cell-based; settings: Table 3 panel, multiresistant clinical isolate, up to 200 mg/L, duplicates, maximum of at least two independent experiments
Procedure: as §1, §2

[8] = test system: Acinetobacter baumannii (CCUG 58437); experiment: Minimal microbicidal concentration (MMC99) assay; format: cell-based; settings: Table 3 panel, multiresistant clinical isolate, up to 200 mg/L, duplicates, maximum of at least two independent experiments
Procedure: as §1, §2

[9] = test system: Escherichia coli (ATCC 11775); experiment: Minimal microbicidal concentration (MMC99) assay; format: cell-based; settings: Table 3 panel, up to 200 mg/L, duplicates, maximum of at least two independent experiments
Procedure: as §1, §2

S. aureus (ATCC 12600) [10] = experiment: In vitro multistep resistance assay (MMC99 after passages); format: cell-based, Staphylococcus aureus
Procedure: (§3) S. aureus (ATCC 12600) and MRSA (ATCC 33591) were cultured according to the protocol described above and diluted to 10^8 CFU/mL in 0.037% BHI as estimated by measuring OD600. The multistep resistance assay was performed as previously described (Kosowska-Shick et al. [2006]). Peptide dilutions were prepared in twofold dilution steps in the concentration range from 0.75 mg/L to 96 mg/L in a volume of 1 mL using 0.37% BHI medium. The same peptide concentration range was used during all passages and new peptide dilutions were prepared each day from stock solutions. Mupirocin (Applichem), the active substance in the conventional topical antibiotic Bactroban, was used as a comparator. The antibiotic control was handled in the same way as the peptides except that the concentration range of mupirocin was 0.003 mg/L to 3 mg/L.
(§4) An aliquot of 10 μL (10^8 CFU/mL) of the bacterial suspension was added to the peptide dilutions, to the positive antibiotic control, and to a negative control incubated without peptide, and the suspensions were incubated at 37°C for 24 h. Turbidity of the overnight cultures was determined by OD600 measurements. The OD600 of bacteria/peptide suspensions was calculated by subtracting the OD600 of the peptide mixed with medium from the OD600 measured on the overnight cultures. […]

MRSA (ATCC 33591) [11] = experiment: as above; format: cell-based, methicillin-resistant S. aureus
Procedure: as §3, §4

[12] = test system: Propionibacterium acnes (ATCC 6919); experiment: Minimal microbicidal concentration (MMC99) assay; format: cell-based; settings: Table 3 panel, up to 200 mg/L, duplicates, maximum of at least two independent experiments
Procedure: as §1, §2

[13] = Table 3 panel, up to 200 mg/L, duplicates, maximum of at least two independent experiments
[14] = up to 200 mg/L, duplicates, maximum of at least two independent experiments
[15] = after 14 days of cultivation under selection pressure, 0.37% BHI, 24 h passages
[16] = multistep resistance assay, before passaging (day 0)
[17] = Table 2 screen, medium 0.037% BHI + 85 mM NaCl, 2 h at 37°C, up to 200 mg/L, duplicates, maximum of at least two independent experiments
[18] = Table 2 screen, medium 0.037% BHI + 150 mM NaCl, 2 h at 37°C, up to 200 mg/L, duplicates, maximum of at least two independent experiments

Molecule: CC(=O)O[C@H]1C[C@@]2(C)[C@@H](C[C@@H](O)[C@H]3[C@@]4(C)CC[C@@H](O)[C@@H](C)[C@@H]4CC[C@@]32C)/C1=C(\CCC=C(C)C)C(=O)O [fusidic acid]
- MMC99, S. aureus ATCC 12600, 50% h.i. SWF (S. aureus (ATCC 12600) [1]; [13]): 6.3 mg/L
- MMC99, MRSA ATCC 33591, 0.037% BHI (MRSA (ATCC 33591) [2]): 6.3 mg/L
- MMC99, MRSA ATCC 33591, 50% h.i. SWF (MRSA (ATCC 33591) [2]): 6.3 mg/L
- MMC99, P. aeruginosa ATCC 15442, 0.037% BHI [3, 14]: >200 mg/L
- MMC99, P. aeruginosa ATCC 15442, 50% h.i. SWF [3, 14]: >200 mg/L
- MMC99, S. pyogenes ATCC 12344, 0.037% BHI [4]: >200 mg/L
- MMC99, S. pyogenes ATCC 12344, 50% h.i. SWF [4]: >200 mg/L
- MMC99, C. albicans ATCC 64549, 0.037% BHI [5]: >200 mg/L
- MMC99, C. albicans ATCC 64549, 50% h.i. SWF [5]: >200 mg/L
- MMC99, S. epidermidis ATCC 12228, 0.037% BHI [6]: 6.3 mg/L
- MMC99, S. epidermidis ATCC 12228, 50% h.i. SWF [6]: 6.3 mg/L
- MMC99, K. pneumoniae CCUG 59413, 0.037% BHI [7]: >200 mg/L
- MMC99, K. pneumoniae CCUG 59413, 50% h.i. SWF [7]: >200 mg/L
- MMC99, A. baumannii CCUG 58437, 0.037% BHI [8]: >200 mg/L
- MMC99, A. baumannii CCUG 58437, 50% h.i. SWF [8]: >200 mg/L
- MMC99, E. coli ATCC 11775, 0.037% BHI [9]: >200 mg/L
- MMC99, E. coli ATCC 11775, 50% h.i. SWF [9]: >200 mg/L

Molecule: C/C(=C\C(=O)OCCCCCCCCC(=O)O)C[C@@H]1OC[C@H](C[C@@H]2O[C@H]2[C@@H](C)[C@H](C)O)[C@@H](O)[C@H]1O [mupirocin, Mupirocin]
- Concentration killing ≥99% of the bacteria (MMC99), day 14 (S. aureus (ATCC 12600) [10]; [15]): 24 mg/L
- Concentration killing ≥99% of the bacteria (MMC99), day 0 (S. aureus (ATCC 12600) [10]; [16]): 3 mg/L
- MMC99, S. aureus ATCC 12600, 0.037% BHI (S. aureus (ATCC 12600) [1]; Table 3 panel, 0.037% BHI, up to 200 mg/L, duplicates, maximum of at least two independent experiments, comparators Bactroban 2% ointment, Fucidin 2% cream): 3.1 mg/L
- MMC99, S. aureus ATCC 12600, 50% h.i. SWF (S. aureus (ATCC 12600) [1]; [13]): 3.1 mg/L
- MMC99, MRSA ATCC 33591, 0.037% BHI (MRSA (ATCC 33591) [2]): 3.1 mg/L
- MMC99, MRSA ATCC 33591, 50% h.i. SWF (MRSA (ATCC 33591) [2]): 3.1 mg/L
- MMC99, P. aeruginosa ATCC 15442, 0.037% BHI [3, 14]: >200 mg/L
- MMC99, P. aeruginosa ATCC 15442, 50% h.i. SWF [3, 14]: >200 mg/L
- Concentration killing ≥99% of the bacteria (MMC99), day 14 (MRSA (ATCC 33591) [11]; [15]): > 384 mg/L
- Concentration killing ≥99% of the bacteria (MMC99), day 0 (MRSA (ATCC 33591) [11]; [16]): 3 mg/L
- MMC99, S. pyogenes ATCC 12344, 0.037% BHI [4]: 6.3 mg/L
- MMC99, S. pyogenes ATCC 12344, 50% h.i. SWF [4]: 3.1 mg/L
- MMC99, C. albicans ATCC 64549, 0.037% BHI [5]: >200 mg/L
- MMC99, C. albicans ATCC 64549, 50% h.i. SWF [5]: >200 mg/L
- MMC99, S. epidermidis ATCC 12228, 0.037% BHI [6]: 3.1 mg/L
- MMC99, S. epidermidis ATCC 12228, 50% h.i. SWF [6]: 3.1 mg/L
- MMC99, P. acnes ATCC 6919, 0.037% BHI ([12]; 0.037% BHI): >200 mg/L
- MMC99, P. acnes ATCC 6919, 50% h.i. SWF ([12]; 50% h.i. SWF): >200 mg/L
- MMC99, K. pneumoniae CCUG 59413, 0.037% BHI [7]: >200 mg/L
- MMC99, K. pneumoniae CCUG 59413, 50% h.i. SWF [7]: >200 mg/L
- MMC99, A. baumannii CCUG 58437, 0.037% BHI [8]: >200 mg/L
- MMC99, A. baumannii CCUG 58437, 50% h.i. SWF [8]: >200 mg/L
- MMC99, E. coli ATCC 11775, 0.037% BHI [9]: >200 mg/L
- MMC99, E. coli ATCC 11775, 50% h.i. SWF [9]: >200 mg/L

Molecule: GW(Br)FKKTFHKVSHAVKSGIHA [CEN1 HC-Br (1–20), C-terminal truncated variant of CEN1 HC-Br]
- S. aureus MMC99, 0.037% BHI + 85 mM NaCl (S. aureus (ATCC 12600) [1]; [17]): >200 mg/L
- S. aureus MMC99, 0.037% BHI + 150 mM NaCl (S. aureus (ATCC 12600) [1]; [18]): >200 mg/L
- S. aureus MMC99, 0.037% BHI (S. aureus (ATCC 12600) [1]; Table 2 screen, medium 0.037% BHI, ≥99% reduction of bacteria, 2 h at 37°C, tested up to 200 mg/L, duplicates, maximum value from at least two independent experiments): 12.5 mg/L
- S. aureus MMC99, 0.037% BHI with 85 mM or 150 mM NaCl (S. aureus (ATCC 12600) [1]; text summary over both NaCl concentrations of Table 2a): ≥ 200 mg/L
- P. aeruginosa MMC99, 0.037% BHI + 85 mM NaCl [3, 17]: 12.5 mg/L
- P. aeruginosa MMC99, 0.037% BHI + 150 mM NaCl [3, 18]: 25 mg/L
- P. aeruginosa MMC99, 0.037% BHI ([3]; Table 2 screen, medium 0.037% BHI, 2 h at 37°C, up to 200 mg/L, duplicates, maximum of at least two independent experiments): 12.5 mg/L
- P. aeruginosa MMC99, 0.037% BHI with 85 mM or 150 mM NaCl ([3]; text summary over both NaCl concentrations of Table 2b, compared to 0.037% BHI only): 12.5 to 100.0 mg/L

— publication PMC3561256, “Anti-infectious and anti-inflammatory effects of peptide fragments sequentially derived from the antimicrobial peptide centrocin 1 isolated from the green sea urchin, Strongylocentrotus droebachiensis” (AMB Express, 2012)
